Values quoted from earlier work as cited in patent publication US12090150B2, “Deuterated analogs of elacridar” (priority 2018, dated 2024).

Experiments:
[1] = system: P-gp and BCRP at the blood brain barrier; conditions: rodents; morphine, amprenavir, imatinib, dasatinib, gefitinib, sorafenib, sunitinib
[2] = system: P-gp/BCRP pumps located in the GI tract; conditions: cancer patients

## COc1cc2c(cc1OC)CN(CCc1ccc(NC(=O)c3cccc4c(=O)c5cccc(OC)c5[nH]c34)cc1)CC2 [elacridar, 9,10-dihydro-5-methoxy-9-oxo-N-[4-[2-(1,2,3,4-tetrahydro-6,7-dimethoxy-2-isoquinolinyl)ethyl]phenyl]-4-acridine-carboxamide]
other
  solubility in water: practically insoluble in water
[1]
  increase of drug levels in the brain of coadministered pump substrates: some success
[2]
  oral absorption of coadministered paclitaxel (P-gp substrate) and topotecan (BCRP substrate): improved
